Results as given in ChEMBL document CHEMBL1949648, “Synthesis and neurite growth evaluation of new analogues of honokiol, a neolignan with potent neurotrophic activity” (2012).

Assays:
N2a [1] = assay: Induction of neurite outgrowth in mouse Neuro2a cells at 1 uM after 48 hrs by morphometric analysis relative to control; format: functional
N2a [2] = assay: Induction of neurite outgrowth in mouse Neuro2a cells at 0.1 uM after 48 hrs by morphometric analysis relative to control; format: functional

| Compound | Activity (N2a [1]) [%] | Activity (N2a [2]) [%] |
| --- | --- | --- |
| C=CCc1ccc(O)c(-c2ccc(O)c(CC=C)c2)c1 [HONOKIOL] | 41.03 |  |
| C=CCc1ccc(O)c(-c2ccc(O)c(-c3ccc(C(=O)OCC)c(C)n3)c2)c1 | 5.78 |  |
| C=CCc1ccc(OC)c(-c2ccc(OC)c(C(=O)c3cn(Cc4ccccc4)nn3)c2)c1 | 6.87 |  |
| C=CCc1ccc(OC)c(-c2ccc(O)c(-c3ccn(C)n3)c2)c1 |  | 5.89 |
